Consider two compounds from patent publication US12729211B2, “Gold(III) compounds and cancer cell-selective modulation of mitochondrial respiration and metabolism” (University of Kentucky Research Foundation, priority 2020, dated 2026).

Experiment [1] relates to MDA-MB-468. In words: Mitochondrial ROS (mtROS) by MitoSOX FACS. The following applies: MitoTEMPO 1 μM 2 hours, then 2a 10 μM 2 hours. Format: cell-based.
Source text: Second, to solidify the specificity of ROS, the use of MitoSOX was employed, which is a mitochondrial targeting dye that specifically reacts with superoxide.
First, the effect of pre-treatment on mtROS production was examined using flow cytometry. Since MitoTEMPO is a specific scavenger for superoxide, the potential to alleviate mitochondrial oxidative damage was investigated by scavenging mtROS once produced. […] In this experiment, Rotenone, a mitochondrial complex I inhibitor, was used as a positive control.
For experiment [2], the system named is MDA-MB-468. In words: MMP by JC-1 FACS, MDA-MB-468. Format: cell-based.
Source text: The MMP depolarizing effect on the panel of TBNCs and healthy models was examined with the use of flow assisted cell sorting (FACS) (FIG. 19A-C). JC-1 was used, a cationic, fluorometric dye that is dependent on the negative charge of the MMP. It is represented as J-aggregates (red fluorescence) when it accumulates into the mitochondria and J-monomers (green fluorescence) when it is located outside the mitochondrial membrane due to loss of the electrochemical gradient.
Next, the effect of MMP was examined when pretreated with MitoTEMPO (1 μM, 2 hours) (FIG. 34).

As for `CC1(C)CC(NC(=O)C[P+](c2ccccc2)(c2ccccc2)c2ccccc2)CC(C)(C)N1[O]` [MitoTEMPO], the “decrease in mtROS versus the non-pretreated group” value in experiment [1] was found to be 1.8 fold.

As for “Carbonyl cyanide m-chlorophenyl hydrazine [CCCP]”, in experiment [2], the “loss of MMP, MitoTEMPO pretreatment” value was 84% and the “loss of MMP, no pretreatment” value came to 95%.
